The record followed here is ChEMBL document CHEMBL5728314, “Chiral N-acyl-5,6,7(8-substituted)-tetrahydro-[1,2,4]triazolo[4,3-a]pyrazines as selective NK-3 receptor antagonists, pharmaceutical composition, methods for use in NK-3 receptor mediated disorders and chiral synthesis thereof” (2021).

The assay concerns the target T1, Neuromedin-K receptor (Homo sapiens, UniProt P29371).
T1 sequence (P29371 whole entry): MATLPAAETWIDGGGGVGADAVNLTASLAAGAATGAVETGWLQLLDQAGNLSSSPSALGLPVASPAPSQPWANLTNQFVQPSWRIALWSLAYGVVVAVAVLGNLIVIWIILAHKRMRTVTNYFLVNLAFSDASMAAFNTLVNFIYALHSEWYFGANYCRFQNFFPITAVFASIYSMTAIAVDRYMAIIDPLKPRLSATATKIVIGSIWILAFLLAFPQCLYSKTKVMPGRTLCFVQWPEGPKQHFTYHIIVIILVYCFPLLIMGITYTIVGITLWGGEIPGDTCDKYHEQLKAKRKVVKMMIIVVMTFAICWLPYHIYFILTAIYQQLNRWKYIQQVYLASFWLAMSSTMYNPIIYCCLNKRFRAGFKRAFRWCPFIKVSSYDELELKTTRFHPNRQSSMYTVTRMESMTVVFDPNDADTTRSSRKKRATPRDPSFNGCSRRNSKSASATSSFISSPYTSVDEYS
Briefly: Binding Competition Assay: NK3: The ability of compounds of the invention to inhibit the binding of the NK-3 receptor selective antagonist 3H-SB222200 was assessed by an in vitro radioligand binding assay. Membranes were prepared from Chinese hamster ovary recombinant cells stably expressing the human NK3 receptor. The membranes were incubated with 5 nM 3H-SB222200 (ARC) in a HEPES 25 mM/NaCl 0.1M/CaCl2 1 mM/MgCl2 5 Mm/BSA 0.5%/Saponin 10 μg/ml buffer at pH 7.4 and various concentrations of compounds of the invention. The amount of 3H-SB222200 bound to the receptor was determined after filtration by the quantification of membrane associated radioactivity using the TopCount-NXT reader (Packard).

For `Cc1coc(-c2nnc3n2CCN[C@@H]3C)n1`, the Ki (commonly the equilibrium dissociation constant of an inhibitor or competing ligand from its target) is 51 nM.
